# Test results: US20050112573A1, “Method of detecting toxic substance” (priority 2001, published 2005)
# System: yeast genes (level of expressed mRNA)
# Experiment: DNA chip analysis of expressed mRNA of yeast genes after 2 h culture with a toxic chemical substance
# Type: cell-based, Saccharomyces cerevisiae S288C
# Description: Yeast (Saccharomyces cerevtisiae S288C (α SUC2mal mel gap2 CUP1)) were cultured at 25° C. on YPD medium (yeast extract 1%, polypepton 2%, glucose 2%). One of toxic chemical substances was added to the cell at logarithmic growth phase, and the cell was further cultured for two hours. Cell was cultured without any chemical substance in the same condition, and was used as control. Concentrations of the chemical substances were defined to inhibit the growth of the yeast but not lead to death.
# After the completion of cultivation, the culture was centrifuged to collect the cells. To the cells, sodium acetate buffer (50 mM sodium acetate, 10 mM EDTA, 1% SDS) was added, and the mixture was shaken at 65° C. for five minutes, followed by returning to room temperature, and obtaining the supernatant, which procedure was repeated two times. To the supernatant, ½ amount of a solution of phenol/chloroform was added, and the mixture was centrifuged to give a supernatant, which was added with an equal amount of chloroform, and the mixture was centrifuged to give a supernatant. To the supernatant, an equal amount of isopropanol containing 0.3 M sodium acetate was added, and the mixture was allowed to stand at room temperature for 30 minutes, after which the mixture was centrifuged to give a sediment of the whole RNAs. Seventy % ethanol was added to the sediment, and the mixture was again centrifuged to give a sediment, which was then dried and dissolved in water. mRNA was isolated from the whole RNAs as followings. In view of the fact that a poly A chain is attached to the 3′ terminus of mRNA, a polynucleotide having a poly T structure which was immobilized on the surface of latex beads was used to trap the mRNA, and then the mRNA was washed and eluted with spine column (Oligotex-dT30<Super>mRNA Purification Kit, Takara). Reverse transcription of the mRNA was conducted with a reverse transcriptase (Super Script II Reverse Transcriptase; catalogue No. 18064-014, GibcoBRL) using fluorescence-labeled nucleotides to give cDNAs that were introduced with Cy3-dUTP or Cy5-dUTP during the reverse transcription.
# The labeled cDNAs were dissolved in TE buffer (10 mM Tris-HCl/1 mM EDTA, pH8.0), and the solution was dropped on the DNA chip containing the whole genes of yeast (DNA Chip Research Inc. Japan) so that the cDNAs were hybridized on the DNA chip at 65° C. for over 12 hours. The fluoresces intensity of the DNA chip was read with a scanner, and the ratio relative to the fluorescence intensity resulting from the absence of chemical substance was estimated as the following, which is shown in Tables 1 to 9: [formula]
# In the Tables, “Intensity” indicated in the rightmost column is a value of the level of expressed mRNA of each gene in control cells as divided by the average level of the expressions of the whole genes.
smiles,measurement,setting,value
"CN(C)C(=S)SSC(=S)N(C)C [(10), Tetramethylthiuram disulfide]",The level of expressed mRNA in the presence of chemical substance/The level of expressed mRNA in the absence of chemical substance,yeast gene YKL013C,1.4
same,The level of expressed mRNA in the presence of chemical substance/The level of expressed mRNA in the absence of chemical substance,yeast gene YKL039W,3.3
same,The level of expressed mRNA in the presence of chemical substance/The level of expressed mRNA in the absence of chemical substance,yeast gene YKL041W,1.5
same,The level of expressed mRNA in the presence of chemical substance/The level of expressed mRNA in the absence of chemical substance,yeast gene YKL096W,0.5
same,The level of expressed mRNA in the presence of chemical substance/The level of expressed mRNA in the absence of chemical substance,yeast gene YKL165C,0.4
same,The level of expressed mRNA in the presence of chemical substance/The level of expressed mRNA in the absence of chemical substance,yeast gene YKL193C,1.6
same,The level of expressed mRNA in the presence of chemical substance/The level of expressed mRNA in the absence of chemical substance,yeast gene YLR120C,1.6
same,The level of expressed mRNA in the presence of chemical substance/The level of expressed mRNA in the absence of chemical substance,yeast gene YLR136C,6.0
same,The level of expressed mRNA in the presence of chemical substance/The level of expressed mRNA in the absence of chemical substance,yeast gene YLR178C,4.1
same,The level of expressed mRNA in the presence of chemical substance/The level of expressed mRNA in the absence of chemical substance,yeast gene YLR250W,2.4
same,The level of expressed mRNA in the presence of chemical substance/The level of expressed mRNA in the absence of chemical substance,yeast gene YLR327C,8.3
same,The level of expressed mRNA in the presence of chemical substance/The level of expressed mRNA in the absence of chemical substance,yeast gene YLR356W,1.6
same,The level of expressed mRNA in the presence of chemical substance/The level of expressed mRNA in the absence of chemical substance,yeast gene YLR362W,3.3
same,The level of expressed mRNA in the presence of chemical substance/The level of expressed mRNA in the absence of chemical substance,yeast gene YLR391W,0.7
same,The level of expressed mRNA in the presence of chemical substance/The level of expressed mRNA in the absence of chemical substance,yeast gene YLR429W,1.3
same,The level of expressed mRNA in the presence of chemical substance/The level of expressed mRNA in the absence of chemical substance,yeast gene YMR004W,3.4
same,The level of expressed mRNA in the presence of chemical substance/The level of expressed mRNA in the absence of chemical substance,yeast gene YMR094W,0.9
same,The level of expressed mRNA in the presence of chemical substance/The level of expressed mRNA in the absence of chemical substance,yeast gene YMR104C,3.2
same,The level of expressed mRNA in the presence of chemical substance/The level of expressed mRNA in the absence of chemical substance,yeast gene YMR219W,0.9
same,The level of expressed mRNA in the presence of chemical substance/The level of expressed mRNA in the absence of chemical substance,yeast gene YMR226C,2.2
same,The level of expressed mRNA in the presence of chemical substance/The level of expressed mRNA in the absence of chemical substance,yeast gene YMR275C,2.1
same,The level of expressed mRNA in the presence of chemical substance/The level of expressed mRNA in the absence of chemical substance,yeast gene YMR276W,1.7
same,The level of expressed mRNA in the presence of chemical substance/The level of expressed mRNA in the absence of chemical substance,yeast gene YMR314W,2.7
same,The level of expressed mRNA in the presence of chemical substance/The level of expressed mRNA in the absence of chemical substance,yeast gene YNL006W,4.0
same,The level of expressed mRNA in the presence of chemical substance/The level of expressed mRNA in the absence of chemical substance,yeast gene YNL007C,1.7
same,The level of expressed mRNA in the presence of chemical substance/The level of expressed mRNA in the absence of chemical substance,yeast gene YNL093W,2.0
same,The level of expressed mRNA in the presence of chemical substance/The level of expressed mRNA in the absence of chemical substance,yeast gene YNL333W,2.1
same,The level of expressed mRNA in the presence of chemical substance/The level of expressed mRNA in the absence of chemical substance,yeast gene YNR010W,0.9
same,The level of expressed mRNA in the presence of chemical substance/The level of expressed mRNA in the absence of chemical substance,yeast gene YNR069C,5.8
same,The level of expressed mRNA in the presence of chemical substance/The level of expressed mRNA in the absence of chemical substance,yeast gene YOL013C,1.0
same,The level of expressed mRNA in the presence of chemical substance/The level of expressed mRNA in the absence of chemical substance,yeast gene YOL164W,3.6
same,The level of expressed mRNA in the presence of chemical substance/The level of expressed mRNA in the absence of chemical substance,yeast gene YOR036W,1.9
same,The level of expressed mRNA in the presence of chemical substance/The level of expressed mRNA in the absence of chemical substance,yeast gene YOR117W,1.8
same,The level of expressed mRNA in the presence of chemical substance/The level of expressed mRNA in the absence of chemical substance,yeast gene YOR124C,1.9
same,The level of expressed mRNA in the presence of chemical substance/The level of expressed mRNA in the absence of chemical substance,yeast gene YOR132W,1.6
same,The level of expressed mRNA in the presence of chemical substance/The level of expressed mRNA in the absence of chemical substance,yeast gene YOR157C,2.6
same,The level of expressed mRNA in the presence of chemical substance/The level of expressed mRNA in the absence of chemical substance,yeast gene YOR181W,0.5
same,The level of expressed mRNA in the presence of chemical substance/The level of expressed mRNA in the absence of chemical substance,yeast gene YOR185C,2.9
same,The level of expressed mRNA in the presence of chemical substance/The level of expressed mRNA in the absence of chemical substance,yeast gene YOR198C,1.4
same,The level of expressed mRNA in the presence of chemical substance/The level of expressed mRNA in the absence of chemical substance,yeast gene YOR259C,1.5
same,The level of expressed mRNA in the presence of chemical substance/The level of expressed mRNA in the absence of chemical substance,yeast gene YOR261C,2.5
same,The level of expressed mRNA in the presence of chemical substance/The level of expressed mRNA in the absence of chemical substance,yeast gene YOR288C,1.0
same,The level of expressed mRNA in the presence of chemical substance/The level of expressed mRNA in the absence of chemical substance,yeast gene YOR355W,0.8
same,The level of expressed mRNA in the presence of chemical substance/The level of expressed mRNA in the absence of chemical substance,yeast gene YOR383C,4.5
same,The level of expressed mRNA in the presence of chemical substance/The level of expressed mRNA in the absence of chemical substance,yeast gene YPL089C,2.5
same,The level of expressed mRNA in the presence of chemical substance/The level of expressed mRNA in the absence of chemical substance,yeast gene YPL109C,1.5
same,The level of expressed mRNA in the presence of chemical substance/The level of expressed mRNA in the absence of chemical substance,yeast gene YPL149W,3.7
same,The level of expressed mRNA in the presence of chemical substance/The level of expressed mRNA in the absence of chemical substance,yeast gene YPL154C,1.7
same,The level of expressed mRNA in the presence of chemical substance/The level of expressed mRNA in the absence of chemical substance,yeast gene YPR103W,2.0
same,The level of expressed mRNA in the presence of chemical substance/The level of expressed mRNA in the absence of chemical substance,yeast gene YPR108W,2.8
